{"source": "patent US7829063B2", "about": "“Development of molecular imaging probes for carbonic anhydrase-IX using click chemistry” (Siemens Medical Solutions USA, Inc., priority 2007, dated 2010)", "data": [{"molecular_target": "T1, CA-IX (Homo sapiens, UniProt Q16790)", "T1 construct": "His tag (C); purchased R&D Systems Inc. 2188-CA; host or cells: mouse myeloma cell line NS0", "assay": "CA-IX combinatorial library screening, competitive fluorescence-based assay with dansylamide (DNSA)", "assay_type": "binding", "conditions": "1 h; Table 1, Libraries 1-3; sample concentrations 100 nM and 1000 nM, DNSA 200 μM; screening at 1 μM; read-out: In Vitro Binding Assay (Library Screening)", "protocol": "General. CA-IX human recombinant enzyme was expressed with a C-terminal His tag in a mouse myeloma cell line, NS0 (R&D Systems Inc., catalog number 2188-CA). The human red blood cells were obtained from Research Blood Components, LLC. All absorbance measurements were performed on a SPECTRA MAX M2 plate reader at 25° C. The LC/MS analyses were performed on an Agilent 1100 series LC/MSD (SL) using a 30×2.1 mm Zorbax C8 column with a Phenomenex C18 pre-column. Compound detection was accomplished by electrospray mass spectroscopy in positive selected ion mode (LC/MS-SIM). The elution solvents were acetonitrile and water, contained 0.05% TFA. Nuclear magnetic resonance (NMR) spectra were obtained on a Bruker AMX 300 MHz spectrometer or a Varian 400. 19F NMR spectra were recorded on a Bruker AMX 282.35 MHz or a Varian 400 spectrometer. The mass spectra were recorded on an Agilent 1100 series LC/MSD with electrospray mass spectroscopic detection. Flash column chromatography was performed on Merck silica gel (40-63 μm) using the solvent system indicated. The radiochemical and chemical purities were analyzed by RP-HPLC.\nGeneral Combinatorial Library Screening Protocol for CA-IX\nThe CA-IX screening assay was employed for testing libraries derived from the various “anchor” molecules, using ethoxzolamide as a positive control. The assay was performed at a substrate (dansylamide, DNSA) concentration of 200 μM, and sample concentrations of 100 nM and 1000 nM, respectively. A modified competitive fluorescence-based assay (A. Jain, S. G. Huang, G. M. Whitesides, J. Am. Chem. Soc. 1994, 116, 5057) was used to measure CA-IX activity. The enzymatic assay was carried out in a 96-well plate. To the wells, deionized water, 40 μL of phosphate buffer (250 mM, pH 7.4), 2.4 μL of CA-IX (17 μM), and 2 μL or 20 μL of inhibitor (concentration of 100 nM or 1000 nM) were added to achieve a final volume of 180 μL. Reactions were initiated by adding 20 μL DNSA (200 μM) to each well and the plate was incubated at 25° C. for 1 hour. The fluorescence intensities from each well of the plate were then read at 460 nm using a plate reader with an excitation wavelength of 290 nm.", "units": {"inhibition at 1 µM": "%"}, "values": [{"smiles": "CCCOC(=O)c1ccc(NC(=O)Cn2cc(-c3ccc(S(N)(=O)=O)cc3)nn2)cc1", "note": "[DHK3]", "inhibition at 1 µM": "< 40"}, {"smiles": "COC(=O)[C@H](CSCc1ccccc1)NC(=O)Cn1cc(-c2ccc(S(N)(=O)=O)cc2)nn1", "note": "[DHK4]", "inhibition at 1 µM": "< 40"}, {"smiles": "NS(=O)(=O)c1ccc(-c2cn(CCN3CCOCC3)nn2)cc1", "note": "[DHK5]", "inhibition at 1 µM": "< 40"}, {"smiles": "NS(=O)(=O)c1ccc(-c2cn(CC(O)CN3C(=O)c4ccccc4C3=O)nn2)cc1", "note": "(stereo not drawn) [DHK8]", "inhibition at 1 µM": "< 40"}, {"smiles": "CC(C)[C@@H](C(=O)NCc1cc(F)ccc1F)n1cc(-c2ccc(S(N)(=O)=O)cc2)nn1", "note": "[DHK11]", "inhibition at 1 µM": "< 40"}, {"smiles": "CC(C)C[C@@H](C(=O)NCc1ccccc1)n1cc(-c2ccc(S(N)(=O)=O)cc2)nn1", "note": "[DHK12]", "inhibition at 1 µM": "< 40"}, {"smiles": "CC(CN(C)C)Cn1cc(-c2ccc(S(N)(=O)=O)cc2)nn1", "note": "(stereo not drawn) [DHK14]", "inhibition at 1 µM": "< 40"}, {"smiles": "CC1CCCN(C(=O)C(C(C)C)n2cc(-c3ccc(S(N)(=O)=O)cc3)nn2)C1", "note": "(stereo not drawn) [DHK15]", "inhibition at 1 µM": "< 40"}, {"smiles": "NS(=O)(=O)c1ccc(-c2cn(Cc3cccc(Br)c3)nn2)cc1", "note": "[DHK18]", "inhibition at 1 µM": "< 40"}, {"smiles": "Cc1ccc(CNC(=O)[C@@H](C(C)C)n2cc(-c3ccc(S(N)(=O)=O)cc3)nn2)cc1F", "note": "[DHK20]", "inhibition at 1 µM": "< 40"}, {"smiles": "CCOC(=O)c1ccc(Cn2cc(-c3ccc(S(N)(=O)=O)cc3)nn2)cc1", "note": "[DHK22]", "inhibition at 1 µM": "< 40"}, {"smiles": "CC(C)[C@H](C(=O)NCc1ccccc1)n1cc(-c2ccc(S(N)(=O)=O)cc2)nn1", "note": "[DHK23]", "inhibition at 1 µM": "< 40"}, {"smiles": "COc1ccc2nc3cc(Cl)ccc3c(NCCCn3cc(-c4ccc(S(N)(=O)=O)cc4)nn3)c2c1", "note": "[DHK24]", "inhibition at 1 µM": "< 40"}, {"smiles": "Cc1cc(NC(=O)Cn2cc(-c3ccc(S(N)(=O)=O)cc3)nn2)n(C)n1", "note": "[DHK26]", "inhibition at 1 µM": "< 40"}, {"smiles": "NS(=O)(=O)c1ccc(-c2cn(Cc3nc4ccccc4[nH]3)nn2)cc1", "note": "[DHK27]", "inhibition at 1 µM": "< 40"}, {"smiles": "NS(=O)(=O)c1ccc(C(=O)NCc2cn(CCN3CCOCC3)nn2)cc1", "note": "[DHK34]", "inhibition at 1 µM": "< 40"}, {"smiles": "Cc1ccnc(NC(=O)[C@H](Cc2ccccc2)n2cc(CNC(=O)c3ccc(S(N)(=O)=O)cc3)nn2)c1", "note": "[DHK36]", "inhibition at 1 µM": "< 40"}, {"smiles": "NS(=O)(=O)c1ccc(C(=O)NCc2cn(-c3cccc(C(=O)NN4CCOCC4)c3)nn2)cc1", "note": "[DHK39]", "inhibition at 1 µM": "< 40"}, {"smiles": "CC(C)C(C(=O)NCc1cc(F)ccc1F)n1cc(CNC(=O)c2ccc(S(N)(=O)=O)cc2)nn1", "note": "(stereo not drawn) [DHK40]", "inhibition at 1 µM": "< 40"}, {"smiles": "CC(C)C[C@@H](C(=O)NCc1ccccc1)n1cc(CNC(=O)c2ccc(S(N)(=O)=O)cc2)nn1", "note": "[DHK41]", "inhibition at 1 µM": "< 40"}, {"smiles": "CC(CN(C)C)Cn1cc(CNC(=O)c2ccc(S(N)(=O)=O)cc2)nn1", "note": "(stereo not drawn) [DHK43]", "inhibition at 1 µM": "< 40"}, {"smiles": "CC1CCCN(C(=O)C(C(C)C)n2cc(CNC(=O)c3ccc(S(N)(=O)=O)cc3)nn2)C1", "note": "(stereo not drawn) [DHK44]", "inhibition at 1 µM": "< 40"}, {"smiles": "Cc1ccc(C)c(CNC(=O)[C@H](Cc2ccccc2)n2cc(CNC(=O)c3ccc(S(N)(=O)=O)cc3)nn2)c1", "note": "[DHK45]", "inhibition at 1 µM": "< 40"}, {"smiles": "NS(=O)(=O)c1ccc(C(=O)NCc2cn(Cc3cccc(Br)c3)nn2)cc1", "note": "[DHK47]", "inhibition at 1 µM": "< 40"}, {"smiles": "NS(=O)(=O)c1ccc(C(=O)NCc2cn(Cn3c(=S)sc4ccccc43)nn2)cc1", "note": "[DHK48]", "inhibition at 1 µM": "< 40"}, {"smiles": "Cc1ccc(CNC(=O)C(C(C)C)n2cc(CNC(=O)c3ccc(S(N)(=O)=O)cc3)nn2)cc1F", "note": "(stereo not drawn) [DHK49]", "inhibition at 1 µM": "< 40"}, {"smiles": "CC(C)[C@@H](C(=O)NC1CCCCC1)n1cc(CNC(=O)c2ccc(S(N)(=O)=O)cc2)nn1", "note": "[DHK50]", "inhibition at 1 µM": "< 40"}, {"smiles": "CCOC(=O)c1ccc(Cn2cc(CNC(=O)c3ccc(S(N)(=O)=O)cc3)nn2)cc1", "note": "[DHK51]", "inhibition at 1 µM": "< 40"}, {"smiles": "CC(C)[C@@H](C(=O)NCc1ccccc1)n1cc(CNC(=O)c2ccc(S(N)(=O)=O)cc2)nn1", "note": "[DHK52]", "inhibition at 1 µM": "< 40"}, {"smiles": "CC(C)[C@@H](C(=O)NCc1ccco1)n1cc(CNC(=O)c2ccc(S(N)(=O)=O)cc2)nn1", "note": "[DHK54]", "inhibition at 1 µM": "< 40"}, {"smiles": "NS(=O)(=O)c1ccc(C(=O)NCc2cn(Cn3nnc4ccccc43)nn2)cc1", "note": "[DHK55]", "inhibition at 1 µM": "< 40"}, {"smiles": "COC(=O)C(Cc1ccc(C(=O)O)cc1)n1cc(CNC(=O)c2ccc(S(N)(=O)=O)cc2)nn1", "note": "(stereo not drawn) [DHK56]", "inhibition at 1 µM": "< 40"}, {"smiles": "CCCOC(=O)c1ccc(NC(=O)Cn2cc(CNC(=O)c3ccc(S(N)(=O)=O)cc3)nn2)cc1", "note": "[DHK57]", "inhibition at 1 µM": "< 40"}, {"smiles": "CC(C)C(C(=O)NCCCN1CCOCC1)n1cc(CNC(=O)c2ccc(S(N)(=O)=O)cc2)nn1", "note": "(stereo not drawn) [DHK58]", "inhibition at 1 µM": "< 40"}, {"smiles": "CC(C)(C)c1cc(C(=O)Cn2cc(CNC(=O)c3ccc(S(N)(=O)=O)cc3)nn2)cc(C(C)(C)C)c1O", "note": "[DHK59]", "inhibition at 1 µM": "< 40"}, {"smiles": "CC(C)[C@@H](C(=O)O)n1cc(CNC(=O)c2ccc(S(N)(=O)=O)cc2)nn1", "note": "[DHK60]", "inhibition at 1 µM": "< 40"}, {"smiles": "CC(C)[C@@H](C(=O)Nc1ccc(-c2ccccc2)cc1)n1cc(CNC(=O)c2ccc(S(N)(=O)=O)cc2)nn1", "note": "[DHK61]", "inhibition at 1 µM": "< 40"}, {"smiles": "NS(=O)(=O)c1ccc(-c2cn(CCOc3ccc4ccc(=O)oc4c3)nn2)cc1", "note": "[DHK63]", "inhibition at 1 µM": "< 40"}, {"smiles": "NS(=O)(=O)c1ccc(-c2cn(CC(=O)n3ncc4ccccc43)nn2)cc1", "note": "[DHK65]", "inhibition at 1 µM": "< 40"}, {"smiles": "CC(C)[C@@H](C(=O)O)n1cc(-c2ccc(S(N)(=O)=O)cc2)nn1", "note": "[DHK66]", "inhibition at 1 µM": "< 40"}, {"smiles": "COC(=O)C(Cc1ccc(C(=O)O)cc1)n1cc(-c2ccc(S(N)(=O)=O)cc2)nn1", "note": "(stereo not drawn) [DHK67]", "inhibition at 1 µM": "< 40"}, {"smiles": "CCCCCC[C@H](O)[C@@H](O)c1ccc(Cn2cc(-c3ccc(S(N)(=O)=O)cc3)nn2)cc1", "note": "[DHK70]", "inhibition at 1 µM": "< 40"}, {"smiles": "NS(=O)(=O)c1ccc(-c2cn(-c3ccnc4cc(Cl)ccc34)nn2)cc1", "note": "[DHK71]", "inhibition at 1 µM": "< 40"}, {"smiles": "C=CC1C[N@@]2CCC1CC2[C@@H](c1ccnc2ccc(OC)cc12)n1cc(-c2ccc(S(N)(=O)=O)cc2)nn1", "note": "(stereo partly drawn) [DHK72]", "inhibition at 1 µM": "< 40"}, {"smiles": "NS(=O)(=O)c1ccc(-c2cn(CCCCCCO)nn2)cc1", "note": "[DHK73]", "inhibition at 1 µM": "< 40"}, {"smiles": "CC(C)C(C(=O)NCCc1ccsc1)n1cc(-c2ccc(S(N)(=O)=O)cc2)nn1", "note": "(stereo not drawn) [DHK76]", "inhibition at 1 µM": "< 40"}, {"smiles": "NS(=O)(=O)c1ccc(-c2cn(CCn3c(=O)[nH]c4ccccc4c3=O)nn2)cc1", "note": "[DHK78]", "inhibition at 1 µM": "< 40"}, {"smiles": "NS(=O)(=O)c1ccc(-c2cn(C3CCN(C(=O)/C=C/c4ccccc4)CC3)nn2)cc1", "note": "[DHK82]", "inhibition at 1 µM": "< 40"}, {"smiles": "CCCCCC[C@H](O)[C@@H](O)c1ccc(Cn2cc(CNC(=O)c3ccc(S(N)(=O)=O)cc3)nn2)cc1", "note": "[DHK85]", "inhibition at 1 µM": "< 40"}, {"smiles": "NS(=O)(=O)c1ccc(C(=O)NCc2cn(-c3ccnc4cc(Cl)ccc34)nn2)cc1", "note": "[DHK86]", "inhibition at 1 µM": "< 40"}, {"smiles": "C=CC1C[N@@]2CCC1CC2[C@@H](c1ccnc2ccc(OC)cc12)n1cc(CNC(=O)c2ccc(S(N)(=O)=O)cc2)nn1", "note": "(stereo partly drawn) [DHK87]", "inhibition at 1 µM": "< 40"}, {"smiles": "NS(=O)(=O)c1ccc(C(=O)NCc2cn(CCCCCCO)nn2)cc1", "note": "[DHK88]", "inhibition at 1 µM": "< 40"}, {"smiles": "NS(=O)(=O)c1ccc(C(=O)NCc2cn(C(c3ccccc3)[C@@H](OC/C=C/c3ccccc3)c3ccccc3)nn2)cc1", "note": "(stereo partly drawn) [DHK90]", "inhibition at 1 µM": "< 40"}, {"smiles": "CC(C)[C@@H](C(=O)NCCc1ccsc1)n1cc(CNC(=O)c2ccc(S(N)(=O)=O)cc2)nn1", "note": "[DHK91]", "inhibition at 1 µM": "< 40"}, {"smiles": "NS(=O)(=O)c1ccc(C(=O)NCc2cn(CC(=O)NC(Cc3cnc[nH]3)C(=O)O)nn2)cc1", "note": "(stereo not drawn) [DHK92]", "inhibition at 1 µM": "< 40"}, {"smiles": "NS(=O)(=O)c1ccc(C(=O)NCc2cn(CCn3c(=O)[nH]c4ccccc4c3=O)nn2)cc1", "note": "[DHK93]", "inhibition at 1 µM": "< 40"}, {"smiles": "NS(=O)(=O)c1ccc(C(=O)NCc2cn(CC(=O)N3CCN(c4cc(Cl)cc(Cl)c4)CC3)nn2)cc1", "note": "[DHK94]", "inhibition at 1 µM": "< 40"}]}]}
